Literature values as cited in US20180235913A1, “AN ORAL PHARMACEUTICAL FORMULATION COMPRISING SUSTAINED-RELEASE GRANULES CONTAINING TAMSULOSIN HYDROCHLORIDE” (HANMI PHARM. CO., LTD., priority 2015, published 2018).
Counter-ions that a name gives are not always drawn.

Conditions: white crystalline powder

Water solubility: slight water solubility
SMILES: CCOc1ccccc1OCCN[C@H](C)Cc1ccc(OC)c(S(N)(=O)=O)c1 [Tamsulosin hydrochloride]
